Experimental data as given in paper PMC12462901 (Journal of the American Chemical Society, 2025).
Where two headings read alike, the source gives them in different places.

Legend:
[1] = tested on: HeLa human cervical carcinoma cells (CCL-2); experiment: cellular potency in HeLa cells; assay type: cell-based; details: read-out: IC50 value (cellular potency)
logD = assay type: physicochemical; details: relative to parent atuveciclib
kinetic solubility = assay type: physicochemical; details: compared to atuveciclib
[2] = tested on: Madin-Darby canine kidney (MDCK) cells; experiment: permeability in MDCK cells; assay type: in vitro ADME; details: compared to the parent compound

Row | IC50 ([1]; HeLa human cervical carcinoma cells (CCL-2)) | logD (logD) | IC50 ([1]; Homo sapiens, HeLa) | SMILES | kinetic solubility (kinetic solubility) | permeability [2]
1 | 700 nM | increase in logD | – | COc1cc(F)ccc1-c1ncnc(Nc2cccc(C[S@@](C)(=O)=NC3CCC3)c2)n1 [Compound 57] | notable improvement compared to atuveciclib | enhanced permeability compared to the parent compound
2 | – | – | 300 nM | COc1cc(F)ccc1-c1ncnc(Nc2cccc(C[S@](C)(=N)=O)c2)n1 [atuveciclib, reference compound] | – | –
